Assay results as given in publication PMC8800018, “Discovery of novel selective PI3Kγ inhibitors through combining machine learning-based virtual screening with multiple protein structures and bio-evaluation” (Journal of Advanced Research, 2021).
Read-outs that look alike come from different tables or passages of the source. One block for each compound: values may come before it.

Columns and labels:
PI3Kγ = PI3Kγ (Homo sapiens, UniProt P48736); assay: ADP-Glo cell-free PI3K kinase activity assay; details: compounds 10 μM, initial screening, Fig. 3A
Chain of PI3Kγ (P48736 whole entry): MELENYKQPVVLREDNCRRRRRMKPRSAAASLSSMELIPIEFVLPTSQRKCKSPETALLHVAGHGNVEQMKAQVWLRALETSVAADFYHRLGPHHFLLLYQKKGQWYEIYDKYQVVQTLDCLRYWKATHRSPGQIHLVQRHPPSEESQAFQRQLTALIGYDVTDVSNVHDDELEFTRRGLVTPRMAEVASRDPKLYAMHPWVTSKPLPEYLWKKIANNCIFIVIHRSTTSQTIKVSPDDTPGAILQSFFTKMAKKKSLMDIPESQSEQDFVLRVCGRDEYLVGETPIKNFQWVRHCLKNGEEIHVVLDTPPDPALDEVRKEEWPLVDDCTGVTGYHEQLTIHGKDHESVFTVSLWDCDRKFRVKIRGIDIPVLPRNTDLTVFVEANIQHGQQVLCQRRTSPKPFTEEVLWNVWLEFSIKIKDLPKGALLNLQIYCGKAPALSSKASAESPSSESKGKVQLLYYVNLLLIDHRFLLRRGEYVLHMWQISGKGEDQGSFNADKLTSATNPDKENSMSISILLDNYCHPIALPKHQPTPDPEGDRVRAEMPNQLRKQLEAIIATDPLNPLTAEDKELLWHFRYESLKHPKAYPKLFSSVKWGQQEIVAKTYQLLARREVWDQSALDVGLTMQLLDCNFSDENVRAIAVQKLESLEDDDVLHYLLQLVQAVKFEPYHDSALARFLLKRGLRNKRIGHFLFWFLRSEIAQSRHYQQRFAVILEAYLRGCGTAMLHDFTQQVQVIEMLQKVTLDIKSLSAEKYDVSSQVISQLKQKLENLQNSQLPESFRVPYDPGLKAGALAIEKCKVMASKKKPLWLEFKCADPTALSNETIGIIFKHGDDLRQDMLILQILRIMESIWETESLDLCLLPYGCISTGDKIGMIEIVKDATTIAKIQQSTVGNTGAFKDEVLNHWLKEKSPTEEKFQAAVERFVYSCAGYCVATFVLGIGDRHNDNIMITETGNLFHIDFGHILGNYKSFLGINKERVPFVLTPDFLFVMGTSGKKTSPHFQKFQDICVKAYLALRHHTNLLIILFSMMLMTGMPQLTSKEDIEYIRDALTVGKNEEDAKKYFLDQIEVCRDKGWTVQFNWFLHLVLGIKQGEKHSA
Procedure: (§6) The PI3K inhibitory activities of these pro-hits were all determined by ADP-Glo assay (Promega) [39]. […] 2.5 μL ATP/substrate mixture was added into the wells to initiate kinase reactions and incubated at room temperature for 1 h. Then, the reactions were stopped by addition of 5 μL ADP-Glo reagent and incubation for 120 min at room temperature. Before reading the luminescence signals of each well, 10 μL kinase detection buffer was added and incubated for 30 min at room temperature.

PI3Kδ = PI3Kδ (Homo sapiens, UniProt O00329); assay: ADP-Glo cell-free PI3K kinase activity assay
Chain of PI3Kδ (O00329 whole entry): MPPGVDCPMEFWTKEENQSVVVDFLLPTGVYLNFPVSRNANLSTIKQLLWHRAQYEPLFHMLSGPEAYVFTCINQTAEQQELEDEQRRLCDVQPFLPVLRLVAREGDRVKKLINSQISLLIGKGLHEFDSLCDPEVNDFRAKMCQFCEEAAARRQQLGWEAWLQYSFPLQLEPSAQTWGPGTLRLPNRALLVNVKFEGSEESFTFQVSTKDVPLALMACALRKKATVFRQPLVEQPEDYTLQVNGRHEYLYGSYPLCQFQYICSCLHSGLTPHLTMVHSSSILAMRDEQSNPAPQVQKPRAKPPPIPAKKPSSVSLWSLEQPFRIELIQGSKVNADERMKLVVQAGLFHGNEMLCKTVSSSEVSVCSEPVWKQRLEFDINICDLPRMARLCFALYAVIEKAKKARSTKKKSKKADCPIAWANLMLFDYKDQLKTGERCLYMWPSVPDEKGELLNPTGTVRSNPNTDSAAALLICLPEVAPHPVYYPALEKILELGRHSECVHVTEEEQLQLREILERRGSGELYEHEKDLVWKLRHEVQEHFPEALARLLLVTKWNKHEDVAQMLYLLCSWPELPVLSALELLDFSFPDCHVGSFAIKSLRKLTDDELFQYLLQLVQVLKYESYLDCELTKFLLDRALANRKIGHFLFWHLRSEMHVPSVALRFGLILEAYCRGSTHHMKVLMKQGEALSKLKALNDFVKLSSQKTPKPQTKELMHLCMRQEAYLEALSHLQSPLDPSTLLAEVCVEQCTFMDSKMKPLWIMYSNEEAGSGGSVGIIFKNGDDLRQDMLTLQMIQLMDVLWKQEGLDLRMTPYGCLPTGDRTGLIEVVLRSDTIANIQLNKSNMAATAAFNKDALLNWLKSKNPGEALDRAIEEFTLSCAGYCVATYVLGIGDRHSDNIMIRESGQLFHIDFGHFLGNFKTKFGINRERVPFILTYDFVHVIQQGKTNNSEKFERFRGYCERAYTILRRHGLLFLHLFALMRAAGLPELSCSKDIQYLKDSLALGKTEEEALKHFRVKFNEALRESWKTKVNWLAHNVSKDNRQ
Chain of PI3Kδ (P27986 whole entry partner): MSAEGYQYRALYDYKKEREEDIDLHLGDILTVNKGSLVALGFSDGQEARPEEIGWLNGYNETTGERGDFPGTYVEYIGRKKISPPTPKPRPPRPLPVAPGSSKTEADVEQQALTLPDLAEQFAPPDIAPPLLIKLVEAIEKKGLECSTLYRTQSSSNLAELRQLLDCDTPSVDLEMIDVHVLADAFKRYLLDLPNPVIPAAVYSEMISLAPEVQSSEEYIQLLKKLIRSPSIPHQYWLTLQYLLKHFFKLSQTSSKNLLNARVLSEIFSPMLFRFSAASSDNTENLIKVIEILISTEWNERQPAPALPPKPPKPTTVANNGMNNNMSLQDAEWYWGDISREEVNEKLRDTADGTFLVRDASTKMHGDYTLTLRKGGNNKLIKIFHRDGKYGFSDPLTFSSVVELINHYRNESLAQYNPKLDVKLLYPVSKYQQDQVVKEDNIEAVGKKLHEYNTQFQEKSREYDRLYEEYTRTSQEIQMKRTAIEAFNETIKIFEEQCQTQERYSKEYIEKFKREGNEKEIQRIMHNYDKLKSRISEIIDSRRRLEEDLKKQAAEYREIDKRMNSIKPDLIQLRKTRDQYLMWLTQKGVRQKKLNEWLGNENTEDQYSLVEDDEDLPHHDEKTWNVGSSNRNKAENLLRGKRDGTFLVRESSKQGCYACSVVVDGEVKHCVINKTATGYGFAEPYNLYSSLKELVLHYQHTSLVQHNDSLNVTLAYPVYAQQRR
Procedure: as §6

[1] = test system: AKT phosphorylation (Thr308, Ser473) in RPMI-8226 cells; assay: Western Blot of PI3K/AKT signaling; assay type: cell-based, human
Procedure: (§1) K562 and RPMI-8226 cells were cultured in 6-well plates with 1 × 10^6 cells per well and then treated with various concentrations of JN-KI3: 0, 2.5, 5, 10, and 20 μM. After 24 h, the cells of each well were collected and washed by PBS 3 times. The sedimentary cells were then incubated in an ice bath with 80 μL RIPA lysis buffer (Beyotime) for 20 min and then centrifuged at 12,000 rpm for 20 min. The supernatant was collected and its total concentration of protein was quantified using the BCA protein assay kit (Biosharp). Loading buffer (5 ×) was added to all protein samples prepared for Western Blot assays and boiled at 100℃ for 5 min.
(§2) The inhibitory situation of PI3K/AKT (Protein kinase B) signaling pathway was then determined by Western Blot assays. The SDS-polyacrylamide gel electrophoresis (PAGE) was used to separate the proteins. All protein samples and Protein Marker (Proteintech) were loaded onto an acrylamide gel and ran for 30 min at 80 V within the staking gel and for 1 h at 100 V with the separating gel. Then, the protein was electro-transferred onto an NC membrane at 100 V for 1 h. After that, the membrane was blocked in 5% skim milk diluted in TBST (1 ×) for 2 h and then the membrane was incubated with relevant primary antibody overnight at 4℃: Phospho-AKT (Thr308) (1 : 1000, cat# 13038 T; Cell Signaling Technology), Phospho-AKT (Ser473) (1: 1000, cat# 4060 T; Cell Signaling Technology), AKT (pan) (1: 1000, cat# 4691 T; Cell Signaling Technology), caspase-3 (1: 1000, cat# sc-56053; Santa Cruz Biotechnology), PARP (1: 1000, cat# 9542S; Cell Signaling Technology). GAPDH (1: 5000, cat#60004–1-Ig; Santa Cruz Biotechnology), After 10-min washing in TBST (1 ×) for 3 times, the membrane was incubated with relevant secondary antibody at room temperature on a shaker for 1 h. And the membrane was washed for 4 times in TBST again before being imaged.

[2] = test system: AKT phosphorylation (Thr308, Ser473) in K562 cells; assay: Western Blot of PI3K/AKT signaling; assay type: cell-based, human
Procedure: as §1, §2

[3] = test system: PARP and caspase-3 cleavage in K562 cells; assay: Western Blot of apoptosis biomarkers; assay type: cell-based, human
Procedure: as §1, §2

[4] = test system: PARP and caspase-3 cleavage in RPMI-8226 cells; assay: Western Blot of apoptosis biomarkers; assay type: cell-based, human
Procedure: as §1, §2

PI3Kβ = PI3Kβ (Homo sapiens, UniProt P42338); assay: ADP-Glo cell-free PI3K kinase activity assay
Chain of PI3Kβ (P42338 whole entry): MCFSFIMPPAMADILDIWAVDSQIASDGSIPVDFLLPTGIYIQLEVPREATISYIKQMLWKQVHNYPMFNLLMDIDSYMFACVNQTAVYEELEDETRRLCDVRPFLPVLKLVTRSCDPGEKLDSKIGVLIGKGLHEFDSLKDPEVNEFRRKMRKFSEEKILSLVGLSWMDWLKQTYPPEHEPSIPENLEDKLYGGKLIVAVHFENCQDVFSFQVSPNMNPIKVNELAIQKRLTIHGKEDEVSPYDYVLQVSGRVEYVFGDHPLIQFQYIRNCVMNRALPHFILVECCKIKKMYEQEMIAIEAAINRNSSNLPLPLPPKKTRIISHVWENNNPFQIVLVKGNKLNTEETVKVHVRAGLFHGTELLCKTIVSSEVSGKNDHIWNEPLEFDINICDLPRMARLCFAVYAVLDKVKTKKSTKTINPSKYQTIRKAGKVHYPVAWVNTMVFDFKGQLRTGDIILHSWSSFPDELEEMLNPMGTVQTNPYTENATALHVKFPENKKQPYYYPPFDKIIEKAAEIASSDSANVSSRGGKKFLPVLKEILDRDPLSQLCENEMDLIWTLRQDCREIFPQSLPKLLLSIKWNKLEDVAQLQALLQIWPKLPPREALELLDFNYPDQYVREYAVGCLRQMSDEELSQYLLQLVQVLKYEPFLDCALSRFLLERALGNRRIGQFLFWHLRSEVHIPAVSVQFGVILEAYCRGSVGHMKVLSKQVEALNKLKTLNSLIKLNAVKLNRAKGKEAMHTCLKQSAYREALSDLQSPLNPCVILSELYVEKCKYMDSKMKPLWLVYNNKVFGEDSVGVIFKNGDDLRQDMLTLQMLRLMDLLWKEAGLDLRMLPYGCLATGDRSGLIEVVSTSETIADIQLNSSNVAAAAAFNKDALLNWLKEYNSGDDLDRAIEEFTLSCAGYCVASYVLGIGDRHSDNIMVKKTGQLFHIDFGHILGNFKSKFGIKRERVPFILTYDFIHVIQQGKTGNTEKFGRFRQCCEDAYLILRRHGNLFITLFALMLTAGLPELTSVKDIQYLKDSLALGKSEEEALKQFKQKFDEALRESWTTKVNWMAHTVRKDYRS
Chain of PI3Kβ (P27986 whole entry partner): as the sequence (P27986 whole entry partner) above
Procedure: as §6

U937 cells = assay: MTT cell proliferation assay; assay type: cell-based, human; details: 72 h, Fig. 3C, compared with IPI-145
From the text: (§3) The human cancer lines, MDA-MB-231, Patu8988, HepG2, A2780, LOVO, H1299, A549, HCT-8, SW480, 3AO, and MGC-803 were saved by the lab of Dr. Jian Jin, Jiangnan University. MCF-7 was purchased from the American Type Culture Collection (ATCC). Human malignant blood tumor cells, HL-60, U266, OPM2, OCI-My5, RPMI-8226, NCI-H929, Jurkat, LP-1, CCRF-CEM, K562, and U937, were provided by Dr. Xinliang Mao, Soochow University. MDA-MB-231, Patu8988, HepG2, A2780, LOVO, H1299, A549, HCT-8, SW480, 3AO, MGC-803, and MCF-7 were cultured in Dulbecco’s Modified Eagle Medium (DMEM, Gibco); U266, RPMI-8226, OPM2, OCI-My5, NCI-H929 and LP-1 were cultured in Iscove’s Modified Dulbecco’s Medium (IMDM. Gibco). The rest of cell lines were cultured in RPMI-1640 medium (Gibco). All mediums were supplemented with 10% fetal bovine serum (FBS, Gibco), 100 μg/mL penicillin and streptomycin, and all cells were maintained in a cell incubator with 5% CO2 at 37℃.
(§4) All cells were incubated in 96-well culture plates with 100 μL medium in each well. The concentration of solid cells (MDA-MB-231, MCF-7, Patu8988, HepG2, A2780, 3AO, LOVO, HCT-8, SW480, A549, H1299, and MGC-803) was 3,000/well and the concentration of suspension cells (HL-60, U266, OPM2, OCI-My5, RPMI-8226, NCI-H929, Jurkat, LP-1, CCRF-CEM, K562, and U937) was 7,500/well. […] The viability of the cancer cells was evaluated by Thiazolyl Blue (MTT) assay. 10 μL of 5 mg/mL MTT was added to each well and the plate was incubated at 37℃ for 4 h. Then, 100 μL MTT buffer was added to each well. After incubating the plate overnight, the absorbance of each well was measured at 550 nm by a microplate reader. All data were normalized to control groups (5 μL DMSO) and converted into the percent of living cells. All results were represented as the mean and standard deviation (SD) of the three independent measurements.

K562 cells [5] = assay: MTT cell proliferation assay; assay type: cell-based, human
From the text: as §3, §4

RPMI-8226 cells [6] = assay: MTT cell proliferation assay; assay type: cell-based, human; details: 72 h, Fig. 3C, compared with IPI-145
From the text: as §3, §4

K562 cells [7] = assay: Annexin V-FITC/PI flow cytometry apoptosis assay; assay type: cell-based, human; details: 24 h
Procedure: (§5) After being treated with JN-KI3 for 24 h, K562 and RPMI-8226 were stained with Annexin V-FITC/PI detection kit (Beyotime) and the apoptosis of the cells were detected using a flow cytometer (FACSCalibur, BD) following the instructions.

RPMI-8226 cells [8] = assay: Annexin V-FITC/PI flow cytometry apoptosis assay; assay type: cell-based, human; details: RPMI-8226, 10 μM, 24 h
Procedure: as §5

[9] = test system: hematologic tumor cell lines (HL-60, Jurkat, CCRF-CEM, K562, OPM2, OCI-My5, LP-1, RPMI-8226, U937); assay: MTT cell proliferation assay, hematologic tumor cell lines, gradient of concentrations; assay type: cell-based, human; details: Fig. 3D
From the text: as §3
All cells were incubated in 96-well culture plates with 100 μL medium in each well. […] The viability of the cancer cells was evaluated by Thiazolyl Blue (MTT) assay. […] After incubating the plate overnight, the absorbance of each well was measured at 550 nm by a microplate reader. […]

PI3Kα = PI3Kα (Homo sapiens, UniProt P42336); assay: ADP-Glo cell-free PI3K kinase activity assay
Chain of PI3Kα (P42336 whole entry): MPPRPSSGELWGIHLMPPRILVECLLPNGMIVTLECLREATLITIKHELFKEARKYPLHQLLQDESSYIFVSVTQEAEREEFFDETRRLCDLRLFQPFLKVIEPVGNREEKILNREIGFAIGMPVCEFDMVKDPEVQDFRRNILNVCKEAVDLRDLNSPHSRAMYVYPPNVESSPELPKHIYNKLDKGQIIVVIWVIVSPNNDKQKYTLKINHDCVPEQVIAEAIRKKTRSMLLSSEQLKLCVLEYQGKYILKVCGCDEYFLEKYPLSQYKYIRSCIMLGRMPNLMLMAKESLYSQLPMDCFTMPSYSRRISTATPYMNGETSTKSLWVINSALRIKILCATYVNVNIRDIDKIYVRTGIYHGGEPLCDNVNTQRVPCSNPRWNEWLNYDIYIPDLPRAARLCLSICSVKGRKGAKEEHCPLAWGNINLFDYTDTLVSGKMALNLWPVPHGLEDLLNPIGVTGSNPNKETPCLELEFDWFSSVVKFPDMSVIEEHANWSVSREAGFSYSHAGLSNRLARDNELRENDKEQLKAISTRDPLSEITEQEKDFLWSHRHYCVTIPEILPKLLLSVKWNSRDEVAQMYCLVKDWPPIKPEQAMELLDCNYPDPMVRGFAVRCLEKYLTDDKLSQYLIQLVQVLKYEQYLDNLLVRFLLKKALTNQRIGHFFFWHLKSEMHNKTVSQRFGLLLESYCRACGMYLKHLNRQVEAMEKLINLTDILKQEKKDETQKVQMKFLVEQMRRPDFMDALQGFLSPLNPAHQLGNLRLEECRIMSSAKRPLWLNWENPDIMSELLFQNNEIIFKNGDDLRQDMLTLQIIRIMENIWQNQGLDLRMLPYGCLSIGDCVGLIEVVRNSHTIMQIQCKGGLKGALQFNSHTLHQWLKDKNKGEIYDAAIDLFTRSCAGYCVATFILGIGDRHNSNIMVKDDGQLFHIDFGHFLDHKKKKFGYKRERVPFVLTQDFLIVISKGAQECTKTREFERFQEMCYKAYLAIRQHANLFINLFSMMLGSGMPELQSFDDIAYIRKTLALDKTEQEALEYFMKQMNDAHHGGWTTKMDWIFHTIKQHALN
Chain of PI3Kα (P27986 whole entry partner): as the sequence (P27986 whole entry partner) above
Procedure: as §6

PI3Kγ inhibitory percent (PI3Kγ): strongest inhibitory activity
Compound: C[C@H](Nc1ncnc2nc[nH]c12)c1cc2cccc(Cl)c2c(=O)n1-c1ccccc1 [IPI-145]

Compound: CC(=O)c1c(C)n(-c2ccc(C)cc2)c2ccc(OCC(O)CNCc3ccc(Cl)cc3)cc12 (centres unmarked) [JN-KI3]
IC50 (PI3Kδ; read-out: Cell-free inhibitory IC50 PI3Kδ, ATP 25 μM, average of triple tests): > 20 µM
IC50 (PI3Kδ; read-out: IC50 PI3Kδ, Table 4): > 20 µM
phosphorylation level of AKT at both sites, time course ([1]; RPMI-8226, 20 μM, 0 to 24 h): significantly inhibited
t-AKT, time course ([1]; RPMI-8226, 20 μM, 0 to 24 h): not markedly affected
AKT phosphorylation at Thr308 and Ser473 ([1]; RPMI-8226, increasing concentration (2.5-20 μM), 24 h, inhibition even at 2.5 μM): markedly decreased
expression of total AKT (t-AKT) ([1]; RPMI-8226, increasing concentration, 24 h): not affected
phosphorylation level of AKT at both sites, time course ([2]; K562, 20 μM, 0 to 24 h): significantly inhibited
t-AKT, time course ([2]; K562, 20 μM, 0 to 24 h): not markedly affected
AKT phosphorylation at Thr308 and Ser473 ([2]; K562, increasing concentration (2.5-20 μM), 24 h, inhibition even at 2.5 μM): markedly decreased
expression of total AKT (t-AKT) ([2]; K562, increasing concentration, 24 h): not affected
cleavage level of Caspase-3 and PARP, time course ([3]; K562, 20 μM, after 6 h): significantly increased
cleavage levels of PARP and caspase-3 ([3]; K562, increasing concentrations, 24 h): obviously increased
cleavage level of Caspase-3 and PARP, time course ([4]; RPMI-8226, 20 μM, after 6 h): significantly increased
cleavage levels of PARP and caspase-3 ([4]; RPMI-8226, increasing concentrations, 24 h): obviously increased
IC50 (PI3Kβ; read-out: Cell-free inhibitory IC50 PI3Kβ, ATP 25 μM, average of triple tests): > 20 µM
IC50 (PI3Kβ; read-out: IC50 PI3Kβ, Table 4): > 20 µM
anti-proliferative activity, U937 (U937 cells): stronger than IPI-145
anti-proliferative activity, K562 (K562 cells [5]; 72 h, MTT, Fig. 3B/3C): stronger than IPI-145
sensitivity of K562 proliferation (K562 cells [5]; gradient of concentrations, low concentration, Fig. 3D): significant sensitivity
anti-proliferative activity, RPMI-8226 (RPMI-8226 cells [6]): stronger than IPI-145
cells occurring apoptosis (K562 cells [7]; K562, 2.5 μM): 41.2%
cells occurring apoptosis (K562 cells [7]; K562, 5 μM): 47.5%
cells occurring apoptosis (K562 cells [7]; K562, 10 μM): 65.7%
cells occurring apoptosis (RPMI-8226 cells [8]): about 20.43%
proliferation of hematologic tumor cell lines [9]: decreased in a concentration-dependent manner
IC50 (PI3Kα; read-out: Cell-free inhibitory IC50 PI3Kα, ATP 25 μM, average of triple tests): > 20 µM
IC50 (PI3Kα; read-out: IC50 PI3Kα, Table 4): > 20 µM

IC50 (PI3Kδ): 0.78 µM
Compound: O=c1cc(N2CCOCC2)oc2c(-c3ccccc3)cccc12 [LY294002, reference compound]
